The results in this text go back to patent publication US9555050B2 (BIOGEN MA INC., priority 2012, dated 2017).

The target in the test is T1, Human ATX protein (Homo sapiens, UniProt Q13822).
T1 construct: made in house
The test is described as follows: ATX biochemical FRET assay with FS-3 substrate. To be noted: FS-3 substrate 2 μM, ATX 1.0 μg/mL, 30 min preincubation, 2 hours at room temperature. The source says: ATX (Autotaxin) is a 125 KDa glycoprotein with lysophospholipase D (LPLD) activity that generates the bioactive lipid lysophosphatidic acid (LPA) from lysophosphatidylcholine (LPC). The ATX biochemical assay utilizes a FRET (fluorescence resonance energy transfer) technology platform. The fluorescence signal of FRET substrate FS-3 is quenched due to intra-molecular FRET of a fluorophore to a non-fluorescing quencher (Ferguson, C. G., et al., Org Lett. 2006 May 11; 8(10): 2023-2026, which is incorporated by reference in its entirety). ATX catalyzes the hydrolysis of the substrate which separates the dabsyl quencher from the fluorescein reporter, which becomes fluorescent. The reaction is monitored by a SpectraMax M5 (Molecular Devices, Sunnyvale, Calif.) with at excitation wavelength 485 nm and emission wavelength […].
Fatty acid free-BSA (Sigma A8806): 10 mg/mL in H2O, stored at 4° C.
2×ATX assay buffer: 100 mM Tris, 280 mM NaCl, 10 mM KCl, 2 mM CaCl2, 2 mM MgCl2, pH 7.4.
Human ATX protein: expressed and purified in house. Stored at −80° C.
Substrate FS-3 (Echelon, L-2000): 100 μg in 77.74.L H2O (1 mM stock), stored at −20° C.
384-well flat bottom plates—Corning #3575.
Compound dilution—All compounds were provided at 10 mM in 100% DMSO. In the first well, 2 μL of 10 mM compound was added to 78 μL of DMSO (1:40 dilution). In subsequent wells 3-fold dilution (total 10 dilutions) were performed.
1×ATX assay buffer was made up with a final concentration of 1 mg/mL fatty acid free-BSA using 2×ATX assay buffer, 10 mg/ml fatty acid free-BSA and ddH2O.
ATX protein was diluted with 1×ATX assay buffer to a concentration of 1.32 μg/mL (1.32×). 38 μL was added per well to the assay plate. The final concentration of ATX in the reaction as 1.0 μg/mL.
2 μL per well of compounds was transferred to provide the desired concentration. The plate was centrifuged, then incubated at room temperature for 30 minutes on the shaker.
FS-3 was diluted with 1×ATX assay buffer to a concentration of FS-3 of 10 μM (5×). Then, 10 μL was added per well to the assay plate. The final concentration of FS-3 in the reaction was 2 μM. The plate was centrifuged. The plate was kept shaking at room temperature for 2 hours. Because FS-3 substrate is light sensitive, plates were kept covered and protected from light.
Fluorescence was measured using SpectraMax M5 (excitation at 485 nm/emission at 538 nm, top read).
For orientation: IC50 means the concentration that inhibits the measured activity by half. Read a low IC50 as greater potency. In turn, `O=C(O)C[C@H]1CN(Cc2ccc3c(C(F)(F)F)c(O[C@H]4CC[C@@H](C(F)(F)F)CC4)ccc3c2)CCO1` [Example 82, 2-((S)-4-((2-(cis-4-(trifluoromethyl)cyclohexyloxy)-1-(trifluoromethyl)naphthalen-6-yl)methyl)morpholin-2-yl)acetic acid] showed an IC50 not above 250 nM. For `C[C@H]1CC[C@@H](Oc2ccc3cc(CN4CC(CC(=O)O)C4)ccc3c2C(F)F)CC1` [Example 97, 1-((5-(Difluoromethyl)-6-((cis-4-methylcyclohexyl)oxy)naphthalen-2-yl)methyl)azetidine-3-acetic acid] the value was not above 100 nM. To `CC[C@H]1CC[C@@H](Oc2ccc3cc(C(C)N4CCC[C@H](CC(=O)O)C4)ccc3c2C(F)(F)F)CC1` (stereo partly drawn) [Example 6, 2-((3R)-1-(1-(6-((cis-4-ethylcyclohexyl)oxy)-5-(trifluoromethyl)naphthalen-2-yl)ethyl)piperidin-3-yl)acetic acid] belongs not above 100 nM; to `O=C(O)C1CCCN(Cc2ccc3c(C(F)(F)F)c(O[C@H]4CC[C@@H](C(F)(F)F)CC4)ccc3c2)CC1` (relative stereo) [Example 76, 1-((5-(trifluoromethyl)-6-((cis-4-(trifluoromethyl)cyclohexyl)oxy)-naphthalen-2-yl)methyl)azepane-4-carboxylic acid], not above 500 nM; to `CC(c1ccc2c(C(F)(F)F)c(O[C@H]3CC[C@@H](C)CC3)ccc2c1)N1CCC[C@H](CC(=O)O)C1` (stereo partly drawn) [Example 51, 2-((3R)-1-(1-(6-((cis-4-Methylcyclohexyl)oxy)-5-(trifluoromethyl)naphthalen-2-yl)ethyl)piperidin-3-yl)acetic acid], not above 100 nM.

With `O=C(O)C[C@H]1CCCN(Cc2ccc3c(C(F)(F)F)c(O[C@H]4CC[C@@H](C(F)(F)F)CC4)ccc3c2)C1` [Example 80, 2-((R)-1-((2-(cis-4-(trifluoromethyl)cyclohexyloxy)-1-(trifluoromethyl)naphthalen-6-yl)methyl)piperidin-3-yl)acetic acid], the concentration for half-maximal inhibition (IC50) was not above 250 nM.

`O=C(O)CC1CCN(Cc2ccc3c(C(F)(F)F)c(O[C@H]4CC[C@@H](C(F)(F)F)CC4)ccc3c2)CC1` [Example 65, 1-((5-(trifluoromethyl)-6-((cis-4-(trifluoromethyl)cyclohexyl)oxy)-naphthalen-2-yl)methyl)piperidine-4-acetic acid]: the IC50 is not above 250 nM. For `CCC(c1ccc2c(C(F)(F)F)c(O[C@H]3CC[C@@H](C)CC3)ccc2c1)N1CCC(C(=O)O)CC1` (relative stereo) [Example 50, 1-(1-(6-((cis-4-Methylcyclohexyl)oxy)-5-(trifluoromethyl)naphthalen-2-yl)propyl)piperidine-4-carboxylic acid] the value was not above 500 nM; for `CC(C)CC(NC1CC(C(=O)O)C1(C)C)c1ccc2c(C(F)(F)F)c(O[C@H]3CC[C@@H](C(F)(F)F)CC3)ccc2c1` (relative stereo) [Example 40, 2,2-dimethyl-3-(3-methyl-1-(5-(trifluoromethyl)-6-((cis)-4-(trifluoromethyl)cyclohexyloxy)naphthalen-2-yl)butylamino)cyclobutanecarboxylic acid], not above 250 nM; for `O=C(O)C1CC(O)CN(Cc2ccc3c(C(F)(F)F)c(O[C@H]4CC[C@@H](C(F)(F)F)CC4)ccc3c2)C1` (relative stereo) [Example 81, 1-((5-(trifluoromethyl)-6-(cis-4-(trifluoromethyl)cyclohexyloxy)naphthalene-2-yl)methyl)-5-hydroxypiperidine-3-carboxylic acid], not above 250 nM. For `C[C@@H](c1ccc2c(C(F)F)c(O[C@H]3CC[C@@H](C)CC3)ccc2c1)N1CCC[C@H](CC(=O)O)C1` [Example 91, 2-((3R)-1-((S)-1-(6-((cis-4-Methylcyclohexyl)oxy)-5-(difluoromethyl)naphthalen-2-yl)ethyl)piperidin-3-yl)acetic acid] the value was not above 100 nM; for `O=C(NCCCP(=O)(O)O)c1ccc2c(C(F)(F)F)c(O[C@H]3CC[C@@H](C(F)(F)F)CC3)ccc2c1` [Example 19, (3-(5-(trifluoromethyl)-6-((cis-4-(trifluoromethyl)cyclohexyl)oxy)-2-naphthamido)propyl)phosphonic acid], not above 100 nM.

`O=C(O)c1ccc(CNCc2ccc3c(C(F)(F)F)c(O[C@H]4CC[C@@H](C(F)(F)F)CC4)ccc3c2)cn1` [Example 75, 5-((((5-(trifluoromethyl)-6-((cis-4-(trifluoromethyl)cyclohexyl)oxy)-naphthalen-2-yl)methyl)amino)methyl)pyridine-2-carboxylic acid] came in with an IC50 not above 250 nM. For `CC(c1ccc2c(C(F)F)c(O[C@H]3CC[C@@H](C)CC3)ccc2c1)N1CCC[C@H](CC(=O)O)C1` (stereo partly drawn) [Example 53, 2-((3R)-1-(1-(6-((cis-4-Methylcyclohexyl)oxy)-5-(difluoromethyl)naphthalen-2-yl)ethyl)piperidin-3-yl)acetic acid] the value was not above 100 nM. To `O=C(O)CC1CN(Cc2ccc3c(C(F)F)c(O[C@H]4CC[C@@H](C(F)(F)F)CC4)ccc3c2)CCO1` (relative stereo) [Example 32, 2-(4-((5-(difluoromethyl)-6-((cis)-4-(trifluoromethyl)cyclohexyloxy)naphthalen-2-yl)methyl)morpholin-2-yl)acetic acid] belongs not above 500 nM; to `CC1(C)C(NC(c2ccc3c(C(F)(F)F)c(O[C@H]4CC[C@@H](C)CC4)ccc3c2)C2CCCCC2)CC1C(=O)O` (stereo partly drawn) [Example 42], not above 500 nM; to `CN(Cc1ccc2c(C(F)(F)F)c(O[C@H]3CC[C@@H](C(F)(F)F)CC3)ccc2c1)C[C@H]1CC[C@H](C(=O)O)CC1` [Example 28, (trans)-4-((methyl((5-(trifluoromethyl)-6-((cis)-4-(trifluoromethyl)cyclohexyloxy)naphthalen-2-yl)methyl)amino)methyl)cyclohexanecarboxylic acid], not above 500 nM. In turn, `O=C(O)CCC1CCN(Cc2ccc3c(C(F)(F)F)c(O[C@H]4CC[C@@H](C(F)(F)F)CC4)ccc3c2)CC1` [Example 83, 3-(1-((2-(cis-4-(trifluoromethyl)cyclohexyloxy)-1-(trifluoromethyl)naphthalen-6-yl)methyl)piperidine-4-yl)propionic acid] gave an IC50 not above 500 nM. In turn, `CN(Cc1ccc2c(C(F)(F)F)c(O[C@H]3CC[C@@H](C(F)(F)F)CC3)ccc2c1)[C@H]1CC[C@@H](C(=O)O)CC1` [Example 79, N-methyl-cis-4-(((5-(trifluoromethyl)-6-(cis-4-(trifluoromethyl)cyclohexyloxy)naphthalene-2-yl)methyl)amino)cyclohexane-1-carboxylic acid] returned an IC50 not above 500 nM. To `FC(F)(F)c1c(O[C@H]2CC[C@@H](C(F)(F)F)CC2)ccc2cc(CN3CCC(c4nn[nH]n4)CC3)ccc12` [Example 5, 4-(2H-tetrazol-5-yl)-1-((5-(trifluoromethyl)-6-((cis-4-(trifluoromethyl)cyclohexyl)oxy)naphthalen-2-yl)methyl)piperidine] belongs not above 250 nM.

With `O=C(O)C1CCCCN1Cc1ccc2c(C(F)(F)F)c(O[C@H]3CC[C@@H](C(F)(F)F)CC3)ccc2c1` (relative stereo) [Example 29, 1-((5-(trifluoromethyl)-6-((cis)-4-(trifluoromethyl)cyclohexyloxy)naphthalen-2-yl)methyl)piperidine-2-carboxylic acid], the IC50 is not above 500 nM. To `CC(c1ccc2c(C(F)F)c(O[C@H]3CC[C@@H](C)CC3)ccc2c1)N1CCC[C@@H](CC(=O)O)C1` (stereo partly drawn) [Example 54, 2-((3S)-1-(1-(6-((cis-4-Methylcyclohexyl)oxy)-5-(difluoromethyl)naphthalen-2-yl)ethyl)piperidin-3-yl)acetic acid] belongs not above 100 nM. For `C[C@@H](c1ccc2c(C(F)F)c(O[C@H]3CC[C@@H](C)CC3)ccc2c1)N1CCC[C@@H](CC(=O)O)C1` [Example 100, 2-((S)-1-((S)-1-(2-(cis-4-methylcyclohexyloxy)-1-(difluoromethyl)naphthalen-6-yl)ethyl)piperidin-3-yl)acetic acid] the value was not above 100 nM; for `O=C(O)C1CCC(NCc2ccc3c(C(F)(F)F)c(O[C@H]4CC[C@@H](C(F)(F)F)CC4)ccc3c2)C1` (single isomer, unassigned) [Example 3b, 3-(((5-(trifluoromethyl)-6-((cis-4-(trifluoromethyl)cyclohexyl)oxy)-naphthalen-2-yl)methyl)amino)cyclopentanecarboxylic acid], not above 500 nM.
